Data reported in patent US10765114B2, “4-amino-6-(pyridyl and 2-substitutedphenyl)-picolinates and 6-amino-2-(pyridyl and 2-substitutedphenyl)-pyrimidine-4-carboxylates and their use as herbicides” (Dow AgroSciences LLC, priority 2013, dated 2020).
Like-named read-outs stand apart in the source and are kept apart here.

Tests used:
[1] = system: Key Grass and Sedge Weeds as well as Grass Crops; assay: Post-Emergent Test II (Table 6); format: in vivo; details: post-emergence, 336 h, 14 days after application; for pest or weed control at 70 g/ha: 70 g ai/ha; for pest or weed control at 140 g/ha: 140 g ai/ha
Summary of the method: (§1)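 Visual injury ratings (0 = no injury, 100 = complete kill) taken 14 days after treatment, relative to untreated controls. Compounds, in an acetone/DMSO aqueous carrier with crop oil and surfactant, were applied by track sprayer at 187 L/ha, in a twofold dilution series from the top rate, to plants at the first to second true-leaf stage.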

[2] = system: Key Broadleaf Weed and Crop Species; assay: Post-Emergent Test II (Table 5); format: in vivo; details: post-emergence, 336 h; for pest or weed control at 70 g/ha: application rate 70 (kg ai/ha; footnote: g ai/ha); for pest or weed control at 140 g/ha: application rate 140 (kg ai/ha; footnote: g ai/ha)
Summary of the method: as §1

[3] = CYPSS, read-out: Visual Growth Reduction (%) 14 Days After Application CYPSS
[4] = DIGSA: crabgrass (Digitaria sanguinalis), read-out: Visual Growth Reduction (%) 14 Days After Application DIGSA
[5] = ECHSS, read-out: Visual Growth Reduction (%) 14 Days After Application ECHSS
[6] = ORYSS (crop), read-out: Visual Growth Reduction (%) 14 Days After Application ORYSS
[7] = SETFA: giant foxtail (Setaria faberi), read-out: Visual Growth Reduction (%) 14 Days After Application SETFA
[8] = SORVU: grain sorghum (Sorghum vulgare), read-out: Visual Growth Reduction (%) 14 Days After Application SORVU
[9] = TRZSS (crop), read-out: Visual Growth Reduction (%) 14 Days After Application TRZSS
[10] = ZEAMX: maize, corn (Zea mays), read-out: Visual Growth Reduction (%) 14 Days After Application ZEAMX
[11] = Abutilon theophrasti, ABUTH: velvetleaf (Abutilon theophrasti), read-out: Visual Growth Reduction (%) 14 Days After Application ABUTH
[12] = Amaranthus retroflexus, AMARE: redroot pigweed (Amaranthus retroflexus), read-out: Visual Growth Reduction (%) 14 Days After Application AMARE
[13] = Brassica napus, BRSSS: oilseed rape, canola (Brassica napus), read-out: Visual Growth Reduction (%) 14 Days After Application BRSSS
[14] = Chenopodium album, CHEAL: lambsquarters (Chenopodium album), read-out: Visual Growth Reduction (%) 14 Days After Application CHEAL
[15] = Euphorbia heterophylla, EPHHL: wild poinsettia (Euphorbia heterophylla), read-out: Visual Growth Reduction (%) 14 Days After Application EPHHL
[16] = Helianthus annuus, HELAN: sunflower (Helianthus annuus), read-out: Visual Growth Reduction (%) 14 Days After Application HELAN
[17] = Viola tricolor, VIOTR: wild pansy (Viola tricolor), read-out: Visual Growth Reduction (%) 14 Days After Application VIOTR

melting point [°C] | Compound | pest or weed control at 70 g/ha [1, 3] [%] | pest or weed control at 140 g/ha [1, 3] [%] | pest or weed control at 70 g/ha [1, 4] [%] | pest or weed control at 140 g/ha [1, 4] [%] | pest or weed control at 70 g/ha [1, 5] [%] | pest or weed control at 140 g/ha [1, 5] [%] | pest or weed control at 70 g/ha [1, 6] [%] | pest or weed control at 140 g/ha [1, 6] [%] | pest or weed control at 70 g/ha [1, 7] [%] | pest or weed control at 140 g/ha [1, 7] [%] | pest or weed control at 70 g/ha [1, 8] [%] | pest or weed control at 140 g/ha [1, 8] [%] | pest or weed control at 70 g/ha [1, 9] [%] | pest or weed control at 140 g/ha [1, 9] [%] | pest or weed control at 70 g/ha [1, 10] [%] | pest or weed control at 140 g/ha [1, 10] [%] | pest or weed control at 70 g/ha [2, 11] [%] | pest or weed control at 140 g/ha [2, 11] [%] | pest or weed control at 70 g/ha [2, 13] [%] | other results
164 to 165 | COC(=O)c1nc(-c2ccc(OC)nc2Cl)c(F)c(N)c1Cl [Compound 88, methyl 4-amino-2′,5-dichloro-3-fluoro-6′-methoxy-[2,3′-bipyridine]-6-carboxylate] | 0 to 29 | 0 to 29 | 0 to 29 | 0 to 29 | 0 to 29 | 0 to 29 | 0 to 29 | 0 to 29 | 0 to 29 | 45 to 59 | 0 to 29 | 0 to 29 | 0 to 29 | 0 to 29 | 0 to 29 | 0 to 29 | 75 to 84 | 95 to 100 | 85 to 94 | pest or weed control at 70 g/ha [2, 12]: 85 to 94%; pest or weed control at 140 g/ha [2, 13]: 85 to 94%; pest or weed control at 70 g/ha [2, 14]: 95 to 100%; pest or weed control at 140 g/ha [2, 14]: 95 to 100%; pest or weed control at 70 g/ha [2, 15]: 0 to 29%; pest or weed control at 140 g/ha [2, 15]: 0 to 29%; pest or weed control at 70 g/ha [2, 16]: 75 to 84%; pest or weed control at 140 g/ha [2, 16]: 85 to 94%; pest or weed control at 70 g/ha [2, 17]: 0 to 29%; pest or weed control at 140 g/ha [2, 17]: 0 to 29%
191 | COC(=O)c1nc(-c2ccc(C)nc2)c(F)c(N)c1Cl [Compound 90] | 0 to 29 | 0 to 29 | 0 to 29 | 45 to 59 | 75 to 84 | 75 to 84 | 0 to 29 | 0 to 29 | 45 to 59 | 60 to 74 | 45 to 59 | 45 to 59 | 30 to 44 | 30 to 44 | 95 to 100 | 95 to 100 | 85 to 94 | 95 to 100 | 60 to 74 | pest or weed control at 70 g/ha [2, 12]: 95 to 100%; pest or weed control at 140 g/ha [2, 12]: 95 to 100%; pest or weed control at 140 g/ha [2, 13]: 75 to 84%; pest or weed control at 70 g/ha [2, 14]: 95 to 100%; pest or weed control at 140 g/ha [2, 14]: 95 to 100%; pest or weed control at 70 g/ha [2, 15]: 85 to 94%; pest or weed control at 140 g/ha [2, 15]: 95 to 100%; pest or weed control at 70 g/ha [2, 16]: 95 to 100%; pest or weed control at 140 g/ha [2, 16]: 95 to 100%; pest or weed control at 70 g/ha [2, 17]: 0 to 29%; pest or weed control at 140 g/ha [2, 17]: 45 to 59%
160 to 162 | Cc1c(F)c(Cl)cc(F)c1-c1cc(N)c(Cl)c(C(=O)O)n1 [Compound 92, 4-amino-3-chloro-6-(4-chloro-3,6-difluoro-2-methylphenyl)picolinic acid] | 0 to 29 | 0 to 29 | 0 to 29 | 0 to 29 | 0 to 29 | 0 to 29 | 0 to 29 | 0 to 29 | 0 to 29 | 0 to 29 | 0 to 29 | 0 to 29 | 30 to 44 | 60 to 74 | 0 to 29 | 0 to 29 | 95 to 100 | 95 to 100 | 95 to 100 | pest or weed control at 70 g/ha [2, 12]: 95 to 100%; pest or weed control at 140 g/ha [2, 12]: 95 to 100%; pest or weed control at 140 g/ha [2, 13]: 95 to 100%; pest or weed control at 70 g/ha [2, 14]: 95 to 100%; pest or weed control at 140 g/ha [2, 14]: 95 to 100%; pest or weed control at 70 g/ha [2, 15]: 0 to 29%; pest or weed control at 140 g/ha [2, 15]: 30 to 44%; pest or weed control at 70 g/ha [2, 16]: 95 to 100%; pest or weed control at 140 g/ha [2, 16]: 95 to 100%; pest or weed control at 70 g/ha [2, 17]: 60 to 74%; pest or weed control at 140 g/ha [2, 17]: 75 to 84%
192 to 195 | COC(=O)c1nc(-c2ccc(Cl)nc2F)nc(N)c1Cl [Compound 94] | 0 to 29 | 0 to 29 | 0 to 29 | 0 to 29 | 0 to 29 | 0 to 29 | 0 to 29 | 0 to 29 | 0 to 29 | 0 to 29 | 0 to 29 | 0 to 29 | 0 to 29 | 0 to 29 | 0 to 29 | 0 to 29 | 0 to 29 | 30 to 44 | 0 to 29 | pest or weed control at 140 g/ha [2, 13]: 0 to 29%; pest or weed control at 70 g/ha [2, 14]: 60 to 74%; pest or weed control at 140 g/ha [2, 14]: 75 to 84%; pest or weed control at 70 g/ha [2, 15]: 0 to 29%; pest or weed control at 140 g/ha [2, 15]: 0 to 29%; pest or weed control at 70 g/ha [2, 16]: 30 to 44%; pest or weed control at 140 g/ha [2, 16]: 30 to 44%; pest or weed control at 70 g/ha [2, 17]: 0 to 29%; pest or weed control at 140 g/ha [2, 17]: 0 to 29%
